These results are taken from patent publication US20100285095A1 (priority 2009, published 2010).

One data set relates to S. aureus MN 8. It counts as cell-based, Staphylococcus aureus.
The next data set can be described thus: physchem. Particulars: 25 °C, water.
The mark [1] stands for this setting: % reduction per mM Ca added, Ca 4.0 mM added to shake flask.
[2] abbreviates: % reduction per mM Ca added, higher concentrations, Ca (mM) as in Table 2: chloride 75.6, stearate 98.8, lactate 53.1, citrate malate 22.6, glycerate 39.7, gluconate 38.4, α-D-heptagluconate 38.1.
[3] abbreviates: % reduction per mM Ca added, low concentrations, Ca (mM) as in Table 1: chloride 15.1, stearate 9.9, lactate 8.8, citrate malate 6.8, glycerate 4.0, gluconate 3.8, α-D-heptagluconate 3.8.
The mark [4] stands for this setting: reduction of TSST-1 vs. PBS and BHI control, low concentrations, Ca (mM) added to shake flask: calcium chloride 15.1, calcium stearate 9.9 (solid added directly into the media), calcium lactate 8.8, calcium citrate malate 6.8, calcium glycerate 4.0, calcium gluconate 3.8, calcium α-D-heptagluconate 3.8.

“And” between values parts separate entries of the source, which are not always exact repeats. Identical values can stand only once. Like-named read-outs stand apart in the source and are kept apart here.

In the case of `O=C(O)C(O)CO` (racemic) [calcium glycerate], the “% TSST-1 Change (μg/ml/mM) vs. control” value with S. aureus MN 8 (setting [1]) turned out to be 17.0%.

As for `O=C([O-])C(O)CO.O=C([O-])C(O)CO.[Ca+2]` [calcium D-glycerate], the “% TSST-1 Change (μg/ml/mM) vs. control” value in the data set with S. aureus MN 8 (setting [1]) was 22.9%.

In the case of `O=C([O-])[C@@H](O)CO.O=C([O-])[C@@H](O)CO.[Ca+2]` [calcium L-glycerate], the “% TSST-1 Change (μg/ml/mM) vs. control” value in the data set with S. aureus MN 8 (setting [1]) is 15.3%.

On to `[Ca+2].[Cl-].[Cl-]` [calcium chloride, reference compound], for which the “% TSST-1 Change (μg/ml/mM) vs. control” value was determined as 1.1% in the data set on S. aureus MN 8 (setting [2]) and 2.5% in the data set on S. aureus MN 8 (setting [3]). Further, the “% TSST-1 Change (μg/mL) vs. control” value with S. aureus MN 8 (setting [4]) is 37%.

For `O=C(O)C(O)CO` (stereo not drawn) [calcium glycerate], the solubility in the data set “physchem” stood at 349 mM. Further, the “% TSST-1 Change (μg/ml/mM) vs. control” value with S. aureus MN 8 (setting [2]) turned out to be 2.5%; in the data set on S. aureus MN 8 (setting [3]), 17.0%. In addition, the “% TSST-1 Change (μg/mL) vs. control” value in the data set on S. aureus MN 8 (setting [4]) is on record as 68%.

On to `CC(O)C(=O)[O-].CC(O)C(=O)[O-].[Ca+2]` (stereo not drawn) [calcium lactate, reference compound], for which the results for the “% TSST-1 Change (μg/ml/mM) vs. control” value in the data set with S. aureus MN 8 (setting [2]) and with S. aureus MN 8 (setting [3]) were 1.7% and 5.6%, respectively. The “% TSST-1 Change (μg/mL) vs. control” value in the data set on S. aureus MN 8 (setting [4]) was 49%.

As to `O=C([O-])C(O)[C@H](O)[C@@H](O)[C@H](O)[C@H](O)CO.O=C([O-])C(O)[C@H](O)[C@@H](O)[C@H](O)[C@H](O)CO.[Ca+2]` (stereo partly drawn) [calcium α-D-heptagluconate], in the data set on S. aureus MN 8, the “% TSST-1 Change (μg/mL) vs. control” value came out at 47%; the “% TSST-1 Change (μg/ml/mM) vs. control” value was 12.5% and 2.6%.

Take “calcium citrate malate [reference compound]”: the “% TSST-1 Change (μg/ml/mM) vs. control” value came to 3.9% in the data set on S. aureus MN 8 (setting [2]) and 13.1% with S. aureus MN 8 (setting [3]). Moreover, the “% TSST-1 Change (μg/mL) vs. control” value in the data set on S. aureus MN 8 (setting [4]) was 89%.

Regarding calcium gluconate, the “% TSST-1 Change (μg/ml/mM) vs. control” value is 2.5% in the data set with S. aureus MN 8 (setting [2]) and 21.3% in the data set on S. aureus MN 8 (setting [3]). Moreover, the “% TSST-1 Change (μg/mL) vs. control” value with S. aureus MN 8 (setting [4]) came out at 81%.

For calcium stearate [reference compound], the “% TSST-1 Change (μg/ml/mM) vs. control” value with S. aureus MN 8 (setting [2]) was determined as 0.6%; with S. aureus MN 8 (setting [3]), 6.6%. For the same compound, the “% TSST-1 Change (μg/mL) vs. control” value with S. aureus MN 8 (setting [4]) turned out to be 65%.

As a reminder, the solubility is the concentration that dissolves in the medium under given conditions. The low end stands for a poorly soluble substance, the high end for a readily soluble substance.
